Test results from the supplement of paper PMC10307832.

Assays:
Experiment in all cases: relative viability (nuclei count vs DMSO), 5 days (fraction); higher = more cells survive
Linsitinib + Tozasertib = compound: C[C@]1(O)C[C@@H](c2nc(-c3ccc4ccc(-c5ccccc5)nc4c3)c3c(N)nccn32)C1 [Linsitinib] + Cc1cc(Nc2cc(N3CCN(C)CC3)nc(Sc3ccc(NC(=O)C4CC4)cc3)n2)n[nH]1 [Tozasertib] (partner 0.1 µM)
How it was run: (§1)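 Five library-drug doses in √10 steps were combined with a fixed anchor-drug dose, or a single drug was given alone, by pin tool to lung cancer cell lines in 1536-well plates the day after seeding. Nuclei were stained and counted after 5 days. Relative viability is the nuclei count in treated wells over that in vehicle wells, taken as the median of duplicate plates.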

Ispinesib + Navitoclax = compound: Cc1ccc(C(=O)N(CCCN)[C@@H](c2nc3cc(Cl)ccc3c(=O)n2Cc2ccccc2)C(C)C)cc1 [Ispinesib] + CC1(C)CCC(c2ccc(Cl)cc2)=C(CN2CCN(c3ccc(C(=O)NS(=O)(=O)c4ccc(N[C@H](CCN5CCOCC5)CSc5ccccc5)c(S(=O)(=O)C(F)(F)F)c4)cc3)CC2)C1 [Navitoclax] (partner 0.5 µM)
How it was run: as §1

Linsitinib + Alpelisib = compound: C[C@]1(O)C[C@@H](c2nc(-c3ccc4ccc(-c5ccccc5)nc4c3)c3c(N)nccn32)C1 [Linsitinib] + Cc1nc(NC(=O)N2CCC[C@H]2C(N)=O)sc1-c1ccnc(C(C)(C)C(F)(F)F)c1 [Alpelisib] (partner 2 µM)
How it was run: as §1

Ispinesib + Olaparib = compound: Cc1ccc(C(=O)N(CCCN)[C@@H](c2nc3cc(Cl)ccc3c(=O)n2Cc2ccccc2)C(C)C)cc1 [Ispinesib] + O=C(c1cc(Cc2n[nH]c(=O)c3ccccc23)ccc1F)N1CCN(C(=O)C2CC2)CC1 [Olaparib] (partner 8 µM)
How it was run: as §1

Cell Line | relative viability (Linsitinib + Tozasertib; first compound 0.01 µM) | relative viability (Linsitinib + Tozasertib; first compound 0.03162 µM) | relative viability (Linsitinib + Tozasertib; first compound 0.1 µM) | relative viability (Linsitinib + Tozasertib; first compound 0.3162 µM) | relative viability (Linsitinib + Tozasertib; first compound 1 µM) | relative viability (Ispinesib + Navitoclax; first compound 0.001 µM) | relative viability (Ispinesib + Navitoclax; first compound 0.003162 µM) | relative viability (Ispinesib + Navitoclax; first compound 0.01 µM) | relative viability (Ispinesib + Navitoclax; first compound 0.03162 µM) | relative viability (Ispinesib + Navitoclax; first compound 0.1 µM) | relative viability (Linsitinib + Alpelisib; first compound 0.01 µM) | relative viability (Linsitinib + Alpelisib; first compound 0.03162 µM) | relative viability (Linsitinib + Alpelisib; first compound 0.1 µM) | relative viability (Linsitinib + Alpelisib; first compound 0.3162 µM) | relative viability (Linsitinib + Alpelisib; first compound 1 µM) | relative viability (Ispinesib + Olaparib; first compound 0.001 µM) | relative viability (Ispinesib + Olaparib; first compound 0.003162 µM) | relative viability (Ispinesib + Olaparib; first compound 0.01 µM) | relative viability (Ispinesib + Olaparib; first compound 0.03162 µM) | relative viability (Ispinesib + Olaparib; first compound 0.1 µM)
NCI-H441 | 0.612 | 1.08 | 0.671 | 0.509 | 0.404 | 0.764 | 0.477 | 0.587 | 0.238 | 0.218 | 0.863 | 0.839 | 0.804 | 0.539 | 0.629 | 0.529 | 0.516 | 0.631 | 0.237 | 0.247
NCI-H1437 | 0.388 | 0.352 | 0.444 | 0.333 | 0.451 | 1.28 | 1.1 | 1.43 | 1.06 | 0.295 | 0.977 | 0.955 | 0.986 | 0.901 | 0.903 | 0.685 | 0.653 | 0.763 | 0.7 | 0.256
PC-14 | 0.559 | 0.542 | 0.578 | 0.486 | 0.427 | 1.13 | 1.14 | 1.22 | 0.43 | 0.104 | 0.799 | 0.89 | 0.968 | 0.792 | 0.837 | 0.27 | 0.141 | 0.0942 | 0.0729 | 0.144
COR-L23 | 0.196 | 0.207 | 0.396 | 0.174 | 0.152 | 1.06 | 1.15 | 1.34 | 0.192 | 0.124 | 0.725 | 0.907 | 0.769 | 0.623 | 0.55 | 0.31 | 0.34 | 0.308 | 0.226 | 0.138
H3255 | 0.626 | 0.65 | 0.612 | 0.497 | 0.559 | 0.562 | 0.541 | 0.46 | 0.344 | 0.217 | 0.605 | 0.858 | 0.732 | 0.591 | 0.771 | 0.589 | 0.597 | 0.541 | 0.46 | 0.394
NCI-H2126 | 0.768 | 0.828 | 0.767 | 0.727 | 0.646 | 0.844 | 0.862 | 0.861 | 0.842 | 0.818 | 0.726 | 0.801 | 0.743 | 0.682 | 0.717 | 0.986 | 0.963 | 0.981 | 1.08 | 0.85
HCC-366 | 0.108 | 0.147 | 0.187 | 0.0897 | 0.0876 | 1.16 | 1.02 | 1.31 | 1.2 | 0.27 | 0.416 | 0.239 | 0.446 | 0.242 | 0.201 | 0.355 | 0.434 | 0.372 | 0.476 | 0.0931
LU99A | 0.284 | 0.27 | 0.281 | 0.264 | 0.234 | 0.857 | 0.757 | 1.02 | 0.627 | 0.141 | 0.517 | 0.547 | 0.505 | 0.417 | 0.332 | 0.249 | 0.264 | 0.235 | 0.234 | 0.245
HOP-62 | 0.356 | 0.336 | 0.335 | – | 0.344 | 1.19 | 1.12 | 1.53 | 1.12 | 0.171 | 0.862 | 1.09 | 0.949 | – | 0.933 | 0.62 | 0.215 | 0.341 | 0.312 | 0.186
HCC-15 | 0.389 | 0.424 | 0.404 | – | 0.319 | 0.792 | 0.82 | 0.848 | 0.665 | 0.401 | 0.918 | 0.887 | 0.952 | 0.582 | 0.775 | 0.683 | 0.759 | 0.917 | 0.831 | 0.445
HARA | 0.135 | 0.106 | 0.202 | – | 0.138 | 1.28 | 1.17 | 1.36 | 1.17 | 0.12 | 0.802 | 0.768 | 0.732 | 0.409 | 0.716 | 1.03 | 0.83 | 0.592 | 0.707 | 0.316
SK-MES-1 | 0.92 | 0.895 | 0.927 | 0.8 | 0.676 | 1.47 | 1.2 | 1.14 | 0.922 | 0.227 | 0.9 | 1.02 | 0.907 | 0.814 | 0.854 | 0.762 | 0.788 | 0.648 | 0.201 | 0.228
NCI-H1355 | 0.584 | 0.576 | 0.475 | 0.458 | 0.428 | 0.996 | 0.878 | 0.927 | 1.08 | 0.688 | 0.78 | 0.718 | 0.675 | 0.632 | 0.549 | 0.736 | 0.806 | 0.889 | 0.736 | 0.328
NCI-H727 | 0.643 | 0.67 | 0.689 | 0.623 | 0.523 | – | 0.519 | 0.507 | 0.387 | 0.26 | 0.489 | 0.394 | 0.564 | 0.378 | 0.278 | 0.642 | 0.771 | – | 0.659 | 0.633
NCI-H520 | 0.426 | 0.39 | 0.494 | – | 0.408 | 1.02 | 1.14 | 1.04 | 0.274 | 0.286 | 0.873 | 0.762 | 0.97 | – | 0.962 | 0.364 | 0.328 | 0.388 | 0.188 | 0.278
NCI-H838 | 0.277 | 0.209 | 0.295 | – | 0.221 | 1.33 | 1.23 | 1.37 | 0.994 | 0.25 | 1 | 0.979 | 1.05 | 0.853 | 0.755 | 0.914 | 0.875 | 1.11 | 0.668 | 0.203
